Assay: gradient 5% acetonitrile 3 min, to 50% in 2 min, to 85% in 15 min, held 3 min, 100 µL/min
Conditions: column: Zorbax Extend-C18 2.1 x 50 mm; eluents: water / acetonitrile, 0.1% formic acid
In short: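 The system's dead and dwell volumes were 40 μL and 900 μL, with a Zorbax Extend-C18 column (2.1 × 50 mm, 1.8 μm) run at 100 μL/min in water and acetonitrile containing 0.1% formic acid each. Pure standards were analyzed in mixtures of ~100 molecules by HPLC–quadrupole time-of-flight mass spectrometry in positive and negative ionization mode. Retention time was assigned from computationally picked, manually inspected adduct peaks.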

| Compound | RP-LC retention time |
| --- | --- |
| O=c1ccc(-c2ccc(F)cc2)nn1CCc1nc(-c2ccccc2Br)no1 | 1010 s |
| Cc1ccc(-c2noc(Cn3ncn4nc(-c5ccc(F)cc5)cc4c3=O)n2)cc1 | 817 s |
| COc1ccc(-c2cn3c(CC(=O)Nc4nccs4)csc3n2)cc1OC | 653 s |
| CCc1noc(NC(C)=O)c1-c1ccc(OC)c(S(=O)(=O)N(C)c2ccc(C)cc2)c1 | 790 s |
| Cc1nn(-c2nc(-c3ccccc3)cs2)c(C)c1CC(=O)Nc1ccc(F)cc1 | 1130 s |
| Cc1nc(NC(=O)c2ccc(-n3ccnc3)nn2)sc1C | 589 s |
| CCCOc1ccccc1C(=O)Nc1nonc1-c1ccccc1 | 991 s |
| CCOc1ccc(N2C(=O)C3N=NN(Cc4nc(-c5ccc6c(c5)OCO6)no4)C3C2=O)cc1 (centres undefined) | 963 s |
| COc1ccc(-c2nnc(N3CCC(C(=O)N4CCN(C)CC4)CC3)o2)cc1 | 582 s |
| CCN1C(=O)c2cccnc2Sc2cc(NC(=O)c3ccc(Cl)cc3OC)ccc21 | 804 s |
| CCOC(=O)N1CCN(C(=O)C2CCC(=O)N(c3ccc(OC)cc3)C2c2ccc(F)cc2)CC1 (centres undefined) | 726 s |
| O=C(c1ccc(F)cc1)N1CCC(C(=O)N2CCc3ccccc32)CC1 | 822 s |
| FCCN(CCF)c1cccc(Cl)c1 | 1060 s |
| COCc1nnc(-c2cc(C)cc(C)c2)o1 | 857 s |
| O=C(NCc1nc(-c2ccc3c(c2)ncn3C2CCCC2)no1)c1ccco1 | 655 s |
| O=C(c1cnn2c(-c3ccc4c(c3)OCO4)ccnc12)N1CCN(c2ccc(F)cc2)CC1 | 890 s |
| Cc1ccc(S(=O)(=O)N2C(=O)CCC2C(=O)NC2CCCCCCC2)cc1 (centres undefined) | 1010 s |
| COc1ccc(NC(=O)C2c3cc(OC)c(OC)cc3C(=O)N(C)C2c2cccs2)c(OC)c1 (centres undefined) | 846 s |
| Cc1ccc(S(=O)(=O)NCCC(=O)N2CCCC2c2nc(-c3ccc(Cl)cc3)no2)cc1 (centres undefined) | 1040 s |
| Cc1cccc(NC(=O)CS(=O)(=O)Cc2ccccc2)n1 | 707 s |
| CCOC(=O)c1ccc(NC(=O)c2cn3c4c(ccc(Cl)c4c2=O)OCC3)cc1 | 1040 s |
| Cc1oc2ccc(NS(=O)(=O)c3ccc(F)cc3)cc2c1C(=O)O | 742 s |
| CCOc1cccc(-c2noc(Cn3ccn(-c4ccc(Cl)cc4)c(=O)c3=O)n2)c1 | 895 s |
| O=C(Nc1nccnc1C(=O)NCCCN1CCCC1)c1ccccc1 | 609 s |
| O=C(Cc1cccs1)N1CCc2c([nH]c3ccccc23)C1c1ccc(F)cc1 (centres undefined) | 1130 s |
| COc1ccc(OCc2noc(CNC(=O)C3CC(=O)N(c4ccccc4)C3)n2)cc1 (centres undefined) | 736 s |
| O=C(NCc1ccc(F)cc1)C1CCCN(C(=O)C2Sc3ccccc3NC2=O)C1 (centres undefined) | 759 s |

| Compound | RP-LC retention time |
| --- | --- |
| Cc1nnc(NC(=O)CSc2ccc(-c3sc(-c4cccnc4)nc3C)nn2)s1 | 622 s |
| Fc1ccc(F)c(-c2nc(-c3ccc(-n4cccn4)nc3)no2)c1 | 1170 s |
| CCOC(=O)c1ccc(NC(=O)Nc2c(-c3ccncc3)nc3ccccn23)cc1 | 631 s |
| CCCN1CCN(C(=O)CN2C(=O)C3CCCCN3c3ccc(C(=O)N4CCCCC4)cc32)CC1 (centres undefined) | 652 s |
| COc1ccc(N2C=C(C#N)S(=O)(=O)c3c(F)cccc32)c(OC)c1 | 893 s |
| COc1cccc(-n2c(=O)c(C(=O)Nc3cc(F)ccc3F)c(O)c3cccnc32)c1 | 1270 s |
| Cc1ccc(N2C(=O)CN(CCc3cccs3)[C@H]3CS(=O)(=O)C[C@H]32)cc1 | 825 s |
| CCn1c(=O)c2c(nc3n2CC(C)CN3C2CCCCC2)n(C)c1=O (centres undefined) | 828 s |
| Cc1nnc2ccc(S(=O)(=O)N(Cc3ccccc3)c3ccc(Cl)cc3)cn12 | 930 s |
| Cc1ccc(NC(=O)Nc2ccc3nncn3c2)cc1C | 730 s |
| COc1cccc(CNC(=O)c2cn3cc(Cl)ccc3n2)c1OC | 824 s |
| CCOC(=O)c1c(C)n(-c2ccc(OC)cc2)c2ccc(OCC(N)=O)cc12 | 909 s |
| Cc1nnc2ccc(N3CCC(C(=O)NCCCN4CCN(c5ccc(F)cc5)CC4)CC3)nn12 | 838 s |
| COc1ccc(OC)c(S(=O)(=O)Nc2ccc(Br)cc2C)c1 | 945 s |
| COc1cc(-c2nc(-c3ccc4c(c3)nnn4C)no2)cc(OC)c1OC | 937 s |
| Cc1ncsc1C1N(C2CCN(C(=O)C3CCC3)CC2)C(=O)C12CCCC2 (centres undefined) | 661 s |
| CCOC(=O)c1cccc(NC(=O)c2sccc2S(=O)(=O)N(C)c2ccc(OCC)cc2)c1 | 1220 s |
| CCOc1ccccc1-c1noc(Cn2c(=O)n(-c3cccc(F)c3)c(=O)c3sccc32)n1 | 967 s |
| CCN(CC)S(=O)(=O)c1ccc(C)c(-c2nnc(-c3ccc(Cl)cc3)o2)c1 | 1200 s |
| Cc1cc(Cl)ccc1NC(=O)N1C[C@H](c2nc(-c3cccnc3)no2)[C@@H](C)C1 | 827 s |
| O=C(NCC(O)C1CCCCC1)c1ccsc1 (centres undefined) | 689 s |
| NC(=O)c1cc(Br)cc(C2CCCCC2)c1O | 1220 s |
| O=C(c1noc2c1CCCCC2)N1CCN(c2ccccn2)CC1 | 632 s |
| Cc1ccc(-c2nc3cnccn3c2NCCC(=O)NCc2ccco2)cc1 | 684 s |
| O=C(NC1CCCC1)c1cccc2c1CCN2C(=O)c1ccc(F)cc1 | 862 s |
| CC1=NS(=O)(=O)N(C)C=C1C(=O)OCc1nc(Cc2ccc(C)cc2)no1 | 956 s |

The remaining lines, values ahead:

| RP-LC retention time | Compound |
| --- | --- |
| 773 s | COc1cccc(NC(=O)N2CCC[C@@H]2C(=O)NCc2csc(-c3cccs3)n2)c1 |
| 966 s | CCn1c(=O)c(C)nc2cc(-c3noc(C4CC(=O)N(c5cccc(Cl)c5)C4)n3)ccc21 (centres undefined) |
| 578 s | COCCNC(=O)C1CCN(c2nc3ccc(-c4cccnc4)nc3s2)CC1 |
| 777 s | CCc1cc(C2CCCN2C(=O)Cc2ccccc2F)on1 (centres undefined) |
| 575 s | CCOC(=O)c1c(C)[nH]c(C(=O)N2CCC(CC(=O)NCCN3CCOCC3)CC2)c1C |
| 697 s | CCC(=O)Nc1ccc(-n2cnc(C(=O)NCc3ccccc3)c2)nc1 |
| 584 s | O=C(NCC1CCN(c2cc(-c3ccncc3)[nH]n2)CC1)c1ccc2cc[nH]c2c1 |
| 1270 s | COc1ccc(N2CCN(S(=O)(=O)c3cc(-c4cc(C(F)(F)F)on4)sc3C)CC2)cc1 |
| 919 s | O=C(Nc1ccc2c(c1)OCCO2)N1CCCn2nc(-c3cccc(Cl)c3)cc2C1 |
| 955 s | CC(C)c1ccc(-c2noc(N3CCC(C(=O)N4CCOCC4)CC3)n2)cc1 |
| 698 s | O=C([C@@H]1C[C@H](F)CN1C(=O)Nc1cccc(C(F)(F)F)c1)N1CCOCC1 |
| 813 s | O=C(NCCc1ccco1)C1CCN(Cc2cc3ccccc3n2Cc2cccc(Cl)c2)CC1 |
| 737 s | Cc1cc2[nH]c(C(=O)Nc3cc(F)c(F)cc3F)c(CN3CCOCC3)c2s1 |
| 822 s | CCc1noc(NC(C)=O)c1-c1ccc(C)c(S(=O)(=O)Nc2cccc(F)c2)c1 |
| 905 s | CCNC(=O)N1CCCC(c2cccc(C(=O)NCc3ccccc3C(F)(F)F)c2)C1 (centres undefined) |
| 645 s | CC(C)c1nnc2ccc(N3CCOCC3)nn12 |
| 829 s | CCc1cc(=O)n(CC(=O)Nc2cccc(C(C)C)c2)c(N2CCOCC2)n1 |
| 1040 s | CCc1ccccc1NC(=O)Cn1nc2cc(C)nc(Nc3ccc(F)cc3)n2c1=O |

| RP-LC retention time | Compound |
| --- | --- |
| 939 s | Cc1cc(C)n(Cc2nc(-c3ccc(NC(=O)CC(C)(C)C)cc3)oc2C)n1 |
| 794 s | CCc1noc(C2CCCCN2CC(=O)NCCc2cccs2)n1 (centres undefined) |
| 613 s | Cc1cccc2sc(NC(=O)CNC(=O)c3ccc(=O)[nH]c3)nc12 |
| 756 s | COc1ccc(Br)cc1CNC(=O)CN1C(=O)CSc2ncccc21 |
| 565 s | CCCN1CCN(c2ncc3c(n2)CCN(Cc2cccc(Br)c2)C3)CC1 |
| 987 s | Cc1ccc(NC(=O)Cn2cc3c(n2)CCC(C)C3)c(C)c1 (centres undefined) |
| 865 s | Cc1sc(NC(=O)CC(C)C)nc1-c1ccc2c(c1)NC(=O)C(C)O2 (centres undefined) |
| 906 s | O=C(C1=NN(CCc2ccccc2)c2cc(Cl)ccc2S1(=O)=O)N1CCOCC1 |
| 738 s | Cc1ccc(NC(=O)Cn2c(C(C)C)nc3c(c2=O)CN(Cc2ccccc2)CC3)cc1C |
| 738 s | CCn1ccc(NC(=O)Nc2cccc(C)c2)n1 |
| 701 s | CCCc1noc(-c2cccnc2N2CCCN(Cc3ccccc3F)CC2)n1 |
| 720 s | Cc1c(Cl)cccc1NC(=O)NCC1CCOCC1 |
| 759 s | CCCCc1ccc(NC(=O)Cn2cnc3nc(N4CCCC(C(=O)NC)C4)sc3c2=O)cc1 (centres undefined) |
| 620 s | CN(C)CCNC(=O)Cn1cnc2onc(-c3ccc(F)cc3)c2c1=O |
| 815 s | O=C(Nc1ccc2c(c1)OCCO2)C1CCCN(C(=O)c2ccc(Cl)cc2)C1 (centres undefined) |
| 975 s | CC(C)Cn1cc(CCNC(=O)Nc2ccc(Br)cc2F)c2cccnc21 |
| 704 s | CCCNC(=O)C1CCN(Cc2cc3ccccc3n2Cc2ccccc2)CC1 |
| 832 s | O=C(Nc1ccc2c(c1)OCCO2)c1cn(-c2cc(N3CCSCC3)ncn2)cn1 |

— the METLIN SMRT retention time set (Domingo-Almenara et al. 2019)
